# Assay results published in publication PMC8064871 (International Journal of Biological Macromolecules, 2021).
# Where a name gives a salt, the structure may show the parent alone.
# Experiments:
# [1] = target: T1, SARS-CoV-2 3CL^pro (Severe acute respiratory syndrome coronavirus 2, UniProt P0DTD1); conditions: incubation 5-40 min at 37 °C; kobs = (k inact·[I])/(K I + [I])
# [2] = target: T1, SARS-CoV-2 3CL^pro; assay: Intact protein molecular weight analysis by mass spectrometry; assay type: binding; conditions: 8.4 μM protease, 90 μM compound, 30 min at 37 °C
# [3] = target: T1, SARS-CoV-2 3CL^pro; assay: Enzymatic inhibition assay of SARS-CoV-2 3CLpro by FRET; assay type: biochemical; conditions: for inhibitory activity against SARS-CoV-2 3CL^pro (in words): concentrations 0, 1, 10, 100 μM
# [4] = target: T1, SARS-CoV-2 3CL^pro; assay: biochemical; conditions: IC50 against SARS-CoV-2 3CL^pro, incubation 3 min
Compound,IC50 [3],inhibitory activity against SARS-CoV-2 3CL^pro (in words) [3],also measured
"CC1=CC(=O)c2ccccc2C1=O [Entry 1, 2-Methyl-1,4-naphthoquinone (vitamin K3), reference compound]",,,K I (inhibition constant) [1]: 112200 nM; proteins bound with one compound [2]: 55%; proteins bound with two compounds [2]: about 15%; proteins covalently bound (total) [2]: about 70%
"O=C1C=CC(=O)c2ccccc21 [Entry 2, 1,4-Naphthoquinone]",690 ± 130 nM,,
"O=C1C=C(Cl)C(=O)c2ccccc21 [Entry 3, 2-Chloro-1,4-naphthoquinone]",1920 ± 490 nM,,
"O=C1C=C(O)C(=O)c2ccccc21 [Entry 4, 2-Hydroxy-1,4-naphthoquinone]",> 100000 nM,almost lose their inhibitory activities,
"NC1=C(Cl)C(=O)c2ccccc2C1=O [Entry 5, 2-Amino-3-chloro-1,4-naphthoquinone]",> 100000 nM,almost lose their inhibitory activities,
"O=C1C=CC(=O)c2c(O)cccc21 [Entry 6, 5-Hydroxy-1,4-naphthoquinone]",4110 ± 240 nM,,
"O=C1C=CC(=O)c2c(O)ccc(O)c21 [Entry 7, 5,8-Dihydroxy-1,4-naphthoquinone]",490 ± 110 nM,,IC50 [4]: 790 nM; K I (inhibition constant) [1]: 3050 nM; proteins bound with one compound [2]: 80%; proteins bound with two compounds [2]: about 10%; proteins covalently bound (total) [2]: about 90%; times higher inhibitory activity than Vitamin K3 ([3]; ratio of IC50 values against SARS-CoV-2 3CL^pro): 9.8 times
"CC1=CC(=O)c2c(O)cccc2C1=O [Entry 8, 2-Methyl-5-hydroxy-1,4-naphthoquinone]",1320 ± 330 nM,,
"O=NN(CCCl)C(=O)NC1CCCCC1 [Lomustine, reference compound]",5860 nM,,
"N=C(N)c1ccc2cc(OC(=O)c3ccc(N=C(N)N)cc3)ccc2c1 [Nafamostat Mesylate, reference compound]",,,remaining activity at 100 µM ([3]; read-out: residual activity of the protease): ~60%
"CC1=C(C/C=C(\C)CCC[C@H](C)CCC[C@H](C)CCCC(C)C)C(=O)c2ccccc2C1=O [Vitamin K1, reference compound]",,no inhibition at the high and middle concentration,
"CC(=O)Oc1cc(C)c(OC(C)=O)c2ccccc12 [Vitamin K4, reference compound]",,lost its inhibitory activity,
"COc1cc(C(=O)NS(=O)(=O)c2ccccc2C)ccc1Cc1cn(C)c2ccc(NC(=O)OC3CCCC3)cc12 [Zafirlukast, reference compound]",46700 nM,,
